Values joined by “and” are separate entries in the source; they are usually repeats but may differ in a detail not shown here. Equal entries are not always repeated. “Also recorded” adds a separate entry of the source. Where two headings read alike, the source gives them in different places.
What was measured:
GLUT2∆loopS_Q455R = biological target: T1, GLUT2∆loopS_Q455R (Homo sapiens, UniProt P11168, Q455R, form not given); assay: Glucose transport assay, GLUT2∆loopS_Q455R expressed in hxt^0 yeast cells EBY.S7; assay type: cell-based
T1 sequence (P11168 1-524 Q455R): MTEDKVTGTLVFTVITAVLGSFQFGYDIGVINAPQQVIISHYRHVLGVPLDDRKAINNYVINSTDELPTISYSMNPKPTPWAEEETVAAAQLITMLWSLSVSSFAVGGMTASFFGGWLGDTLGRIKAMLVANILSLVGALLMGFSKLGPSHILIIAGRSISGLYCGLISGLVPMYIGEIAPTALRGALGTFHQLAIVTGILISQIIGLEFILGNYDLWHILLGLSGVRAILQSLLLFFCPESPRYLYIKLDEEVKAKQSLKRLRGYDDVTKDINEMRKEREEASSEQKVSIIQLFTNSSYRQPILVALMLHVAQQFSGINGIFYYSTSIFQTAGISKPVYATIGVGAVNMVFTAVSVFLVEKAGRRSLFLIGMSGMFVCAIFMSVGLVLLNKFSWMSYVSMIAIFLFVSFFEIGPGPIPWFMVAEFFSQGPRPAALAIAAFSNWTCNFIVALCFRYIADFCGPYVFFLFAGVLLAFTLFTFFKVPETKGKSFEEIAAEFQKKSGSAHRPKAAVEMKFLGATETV
Description: (§1) The most studied GLUTs are Class 1 GLUTs (GLUT1-4) and a Class 2 GLUT, GLUT5 (a fructose-only transporter). GLUT3 sequence homology and identity is 79% and 64%, 71% and 52%, 74% and 57%, and 60% and 38% with GLUT1, GLUT2, GLUT4, and GLUT5, respectively. The hxt^0 yeast cell systems expressing functional GLUT1-4[65],[69] and GLUT5[66] allow us to determine the in vivo transport activity (substrate uptake by a GLUT into whole cells) for individual GLUTs and establish GLUT3 inhibitor selectivity for these transporters. The transport assay was performed as described for GLUT3, but at the substrate concentrations that correspond to the KM for each GLUT (i.e., 5 mM glucose for GLUT1 and GLUT4[65], 15 mM glucose for GLUT2∆loopS_Q455R[63], and 10 mM fructose for GLUT5S72Y[66]).
(§2) The transport activity was assayed as the substrate uptake in hexose transporter-deficient yeast cells expressing functional GLUT1[65], GLUT2[69], GLUT4[65], or GLUT5[66]. Substrate final concentration in the assay matched the corresponding substrate KM and was 5 mM glucose for GLUT1 and GLUT4, 15 mM glucose for GLUT2∆loopS_Q455R, and 10 mM fructose for GLUT5S72Y. Transport assay was initiated by the addition of C^14-labeled substrate and stopped after 10 min (see “Materials and methods” for details). […] Standard deviations for experimental points come from at least three independent measurements.
(§3) The plasmids containing functional constructs of GLUT1-5 were transformed in the corresponding hxt^0 strains[65],[66],[73] (EBY.VW4000 for GLUT5S72Y, EBY.S7 for GLUT1, GLUT2∆loopS_Q455R, GLUT3 and GLUT3S66Y, and SDY.022 for GLUT4) and grown on 2% (w/v) agar plates of the respective media supplemented with 1% (w/v) maltose. An initial culture of ~ 10 ml was started with a few colonies and grown for 2–3 days if the media was SC-uracil with 1% (w/v) maltose (GLUT1, GLUT3, GLUT4) or 1–2 days if the media was YEP with 1% (w/v) maltose and 100 µg/ml geneticin G418 (GLUT2∆loopS_Q455R and GLUT5S72Y). Cells were washed once in the corresponding media in which maltose was substituted with 0.1–2% hexose substrate for the expressing GLUT (i.e., SC-uracil, 2% (w/v) glucose for GLUT1; SC-uracil, 0.2% (w/v/) glucose for GLUT3 and GLUT4; YEP, 0.2% (w/v) glucose, 100 µg/ml geneticin G418 for GLUT2∆loopS_Q455R, and YEP, 2% (w/v) fructose for GLUT5 S72Y). Then, cells were transferred in the same media so that OD600nm ~ 0.5 and grown further for 1–2 days.
(§4) For transport activity assay, cells in the hexose media were centrifuged (1000×g, 5 min, room temperature), washed once with PBS buffer (10 mM Na2HPO4, 1.8 mM KH2PO4, 2.7 mM KCl, 137 mM NaCl, pH 7.4), and resuspended in PBS buffer at an OD600nm ~ 10; each assay contained 100 µl of this cell solution. Transport activity assay was started by adding C^14-hexose at a substrate concentration corresponding to the respective KM (5 mM glucose for GLUT1 or GLUT4, 3 mM glucose for GLUT3 or 1.5 mM glucose for GLUT3S66Y, 15 mM glucose for GLUT2∆loopS_Q455R, and 10 mM fructose for GLUT5S72Y); for determining the glucose KM in GLUT3 and GLUT3S66Y, substrate concentrations were varied accordingly. […] The filtration membranes were transferred into scintillation vials with 10 ml of Scintillation Solution (BioSafeII; Research Products International, Mount Prospect, IL, USA), and vortexed briefly. The radioactivity was determined with a scintillation counter (Tri-carb 2900TR, Perkin Elmer, USA).

GLUT4 = biological target: T2, GLUT4 (Homo sapiens, UniProt P14672); assay: Glucose transport assay, GLUT4 expressed in hxt^0 yeast cells SDY.022; assay type: cell-based; conditions: for IC50: hxt^0 yeast cells, 5 mM glucose, read-out: IC50 for GLUT4 transport inhibition; for Potency for GLUT4 relative to GLUT3 (higher for GLUT4): IC50 GLUT4 versus IC50 GLUT3
T2 construct: expressed in transfected cells; host or cells: Saccharomyces cerevisiae hxt0 strain SDY.022 (EBY.S7 Δerg4)
T2 sequence (P14672 1-509): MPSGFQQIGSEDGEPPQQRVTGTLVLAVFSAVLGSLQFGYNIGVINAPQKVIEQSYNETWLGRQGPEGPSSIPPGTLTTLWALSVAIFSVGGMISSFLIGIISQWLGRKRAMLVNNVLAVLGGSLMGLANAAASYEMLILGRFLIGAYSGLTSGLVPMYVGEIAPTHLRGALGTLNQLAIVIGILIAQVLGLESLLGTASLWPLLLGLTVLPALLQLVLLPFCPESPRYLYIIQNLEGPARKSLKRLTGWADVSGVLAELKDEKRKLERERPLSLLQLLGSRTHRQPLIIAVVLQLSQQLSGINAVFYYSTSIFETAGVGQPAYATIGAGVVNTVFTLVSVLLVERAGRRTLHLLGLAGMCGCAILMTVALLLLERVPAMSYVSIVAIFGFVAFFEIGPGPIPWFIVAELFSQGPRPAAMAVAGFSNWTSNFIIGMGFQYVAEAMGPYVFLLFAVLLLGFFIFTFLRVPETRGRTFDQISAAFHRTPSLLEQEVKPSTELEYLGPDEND
Description: as §1, §2, §3, §4

[1] = GLUT2∆loopS_Q455R in hxt^0 yeast cells, 15 mM glucose; read-out: IC50 for GLUT2 transport inhibition

In the case of `CC(=O)Nc1ccc(S(=O)(=O)Nc2ccc(Nc3cc(N(C)C)nc(C)n3)cc2)cc1` [G3iA, N-(4-{[(4-{[6-(dimethylamino)-2-methylpyrimidin-4-yl]amino}phenyl)amino]sulfonyl}phenyl)acetamide], the IC50 (GLUT2∆loopS_Q455R; [1]) is reported as 29.4 ± 6.3 µM, the “Potency for GLUT2 relative to GLUT3 (IC50 ratio, weaker for GLUT2)” value (GLUT2∆loopS_Q455R; IC50 GLUT2 versus IC50 GLUT3) is reported as “~ fourfold” and the IC50 (GLUT4) is reported as greater than 50 µM.
`COc1ccccc1-n1c(/C=C/c2ccc(O)cc2)nc2ccc(Br)cc2c1=O` [G3iB, 6-bromo-2-[(E)-2-(4-hydroxyphenyl)ethenyl]-3-(2-methoxyphenyl)quinazolin-4(3H)-one] showed an IC50 (GLUT2∆loopS_Q455R; read-out: IC50 for GLUT2 transport inhibition; GLUT2∆loopS_Q455R in hxt^0 yeast cells, 15 mM glucose) greater than 50 µM and an IC50 (GLUT4) of 12.7 ± 2.3 µM.
With `Cc1cccnc1OC1CCN(c2cc(N3CCCC3CO)ncn2)CC1` (centres unmarked) [G3iC] the IC50 (GLUT2∆loopS_Q455R; [1]) was greater than 50 µM and the IC50 (GLUT4) was 25.6 ± 6.6 µM.
With `Cc1cc(NC(=O)CCC2Cc3ccccc3NC2=O)nc(-c2ccccc2)n1` (centres unmarked) [G3iD] the IC50 (GLUT2∆loopS_Q455R; [1]) was 40 ± 3.7 µM, the Ki (GLUT4; 2.5, 5 and 10 mM glucose, 0, 4 and 8 µM G3iD, read-out: Ki for GLUT4 inhibition (Dixon plot)) was 2.65 µM and ~2.7 µM and the “Inhibition mode in GLUT4” value (GLUT4; Dixon plot, versus glucose) was “competitive with glucose; also recorded: competitive inhibitor; also recorded: competitive inhibition mode”. The “Potency for GLUT4 relative to GLUT3 (higher for GLUT4)” value (GLUT4) was “~ fivefold” and the IC50 (GLUT4) was 3.88 ± 0.57 µM.
With `O=C(Nc1cccc(Cl)c1)c1cccc(NC(=O)c2cccc([N+](=O)[O-])c2)c1` [G3iE, N-{3-[(3-chloroanilino)carbonyl]phenyl}-3-nitrobenzamide] the IC50 (GLUT2∆loopS_Q455R; [1]) was greater than 50 µM and the IC50 (GLUT4) was 12.4 ± 2.5 µM.
In the case of `Cc1ccccc1CN(Cc1nnc(C(C)(C)C)o1)c1ccc2nc(O)[nH]c2c1` [G3iF], the IC50 (GLUT2∆loopS_Q455R; [1]) is reported as 24.7 ± 8.4 µM, the “Potency for GLUT4 relative to GLUT3 (higher for GLUT4)” value (GLUT4) is reported as “~ fivefold” and the IC50 (GLUT4) is reported as 6.94 ± 1.37 µM.

Source: PMC8791944, “GLUT3 inhibitor discovery through in silico ligand screening and in vivo validation in eukaryotic expression systems” (Scientific Reports, 2022)
